This is an account of results in PubChem BioAssay AID1794805 (Yongcheng Song lab at Baylor College of Medicine, 2022).

Active and inactive are the calls of the source.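 How the source made its calls: active means EC50 under 50 µM in a live-cell viability test; inactive means the rest.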

This experiment concerns HL60 proliferation, XTT absorbance. Kind of experiment: HL60 leukemia cell growth inhibition, dose response, XTT absorbance (AID 1794805).
Take `O=C(NCC1CCNCC1)c1cc2ccc(-c3ccc(N4CCCCC4)cc3)cc2s1`: the concentration for a half-maximal effect (EC50) is 10 µM. As to `O=C(NCC1CCNCC1)c1c[nH]c2cc(-c3ccc(N4CCCCC4)cc3)ccc12`, the half-maximal effective concentration (EC50) is 50 µM. As to `O=C(NCC1CCNCC1)c1coc2cc(-c3ccc(N4CCCCC4)cc3)ccc12`, the EC50 was 9.7 µM.

With `O=C(NCC1CCNCC1)c1cc2cc(-c3ccc(N4CCCCC4)cc3)ccc2[nH]1`, the EC50 was 50 µM.

Consider `NC(=O)c1ccc(-c2ccc3cc(C(=O)NCC4CCNCC4)sc3c2)cc1`, for which the EC50 is > 51 µM (inactive). `O=C(NCC1CCNCC1)c1cc2ccc(-c3ccc(N4CCCC4)cc3)cc2s1`: the 50% effective concentration (EC50) was 26 µM.

For the compound `O=C(NCC1CCNCC1)c1cc2cc(-c3ccc(N4CCCCC4)cc3)ccc2s1`, the concentration for a half-maximal effect (EC50) is 9 µM. For `O=C(NCC1CCNCC1)c1cc2cc(-c3cn[nH]c3)ccc2[nH]1` the value was > 51 µM (inactive); for `NCc1ccc(-c2ccc3cc(C(=O)NCC4CCNCC4)oc3c2)cc1`, > 51 µM (inactive). On to `O=C(NCC1CCNCC1)c1c[nH]c2cc(-c3ccc(N4CCCC4)cc3)ccc12`, for which the 50% effective concentration (EC50) is 50 µM.
